Earlier results, collected in US20100062042A1, “Methods, Systems and Devices for Administration of Chlorine Dioxide” (priority 2008, published 2010).

How the values were obtained:
[1] = system: methicillin-resistant Staphylococcus aureus (MRSA); settings: see U.S. Application No. 61/150,685
[2] = system: Pseudomonas aeruginosa (P. aeruginosa); settings: see U.S. Application No. 61/150,685
[3] = particularly in chilled water

What does the source list for `[O][Cl+][O-]` [chlorine dioxide, Chlorine dioxide]?
Effectiveness against MRSA [1]: effective; Effectiveness against P. aeruginosa [2]: effective; Solubility in water [3]: high solubility in water
